In patent US7893055B2, “HIV integrase inhibitors” (priority 2006, dated 2011):

Biological target: T1, HIV-integrase (Human immunodeficiency virus type 1 group M subtype B, UniProt P12497)
T1 construct: Recombinant integrase (0.26 ng) was incubated with the beads
Test: HIV-Integrase Inhibition Activity (SPA strand transfer assay)
Format: biochemical
Details: recombinant integrase, SPA beads, P33 labeled target DNA; read-out: Activity (IC50 class, HIV-integrase inhibition)
Protocol: HIV-Integrase InhibitionActivity. To evaluate in-vitro activity against HIV-integrase, 5 pmole of biotin labeled substrate DNA was bound to 100 μg of Streptavidin coated PVT SPA beads (Amersham Pharmacia Biotech). Recombinant integrase (0.26 ng) was incubated with the beads for 90 min at 37° C. Unbound enzyme was removed by washing the complex followed by addition of inhibitors and 0.1 fmol of P33 labeled target DNA. The reaction was stopped by adding EDTA to a final concentration of 10 mM. Samples were counted in TopCountNXT (Packard) and the CPM was used as a measure of integration. The reaction condition was as described in A. Engelman and R. Craigie, J. Virol. 69, 5908-5911 (1995). The sequences of substrate and target DNA were described in Nucleic Acid Research 22, 1121-1122 (1994). Activity equal to A refers to a compound having IC50=0.002 to 0.10 μM while B and C denote compounds having IC50=0.1 to 1.0 μM and IC50≧1.0 μM respectively.

Q: For “Pyrimido[2,1-c][1,4]oxazine-2- carboxamide, N-[(2-bromo-3- thienyl)methy]-4,6,7,9-tetrahydro- 3-hydroxy-9,9-dimethyl-4-oxo- [Example 41]”, which IC50 is on record?
A: 2 to 100 nM

Q: With “Pyrimido[2,1-c][1,4]oxazine-2- carboxamide, N-[(2,5-dimethyl-3- furanyl)methyl]-4,6,7,9- tetrahydro-3-hydroxy-9,9- dimethyl-4-oxo- [Example 44]” as the compound, how does the IC50 read?
A: 2 to 100 nM

Q: Which IC50 does the source give for “Pyrimido[2,1-c][1,4]oxazine-2- carboxamide, N-(2- benzofuranylmethyl)-4,6,7,9- tetrahydro-3-hydroxy-9,9- dimethyl-4-oxo- [Example 56]” here?
A: 2 to 100 nM

Q: Which IC50 does the source give for “Pyrimido[2,1-c][1,4]oxazine-2- carboxamide, N-[(4-chloro-1- ethyl-1H-pyrazol-3-yl)methyl]- 4,6,7,9-tetrahydro-3-hydroxy-9,9- dimethyl-4-oxo- [Example 70]” here?
A: 2 to 100 nM

Q: “Pyrimido[2,1-c][1,4]oxazine-2- carboxamide, N-[(1-ethyl-1H- pyrazol-3-yl)methyl]-4,6,7,9- tetrahydro-3-hydroxy-9,9- dimethyl-4-oxo- [Example 67]” was tested. Which IC50 did it give?
A: 2 to 100 nM

Q: How did the IC50 turn out when Cc1cc(CNC(=O)c2nc3n(c(=O)c2O)CCOC3(C)C)nn1C(F)F [Example 18, Pyrimido[2,1-c][1,4]oxazine-2-carboxamide, N-[[1-(difluoromethyl)-5-methyl-1H-pyrazol-3-yl]methyl]-4,6,7,9-tetrahydro-3-hydroxy-9,9-dimethyl-4-oxo-] was run?
A: 2 to 100 nM

Q: Which IC50 does the source give for CC1(C)OCCn2c1nc(C(=O)NCc1ccc(S(C)(=O)=O)o1)c(O)c2=O [Example 88, 3-Hydroxy-9,9-dimethyl-N-((5-(methylsulfonyl)furan-2-yl)methyl)-4-oxo-4,6,7,9-tetrahydropyrimido[2,1-c][1,4]oxazine-2-carboxamide] here?
A: 100 to 1000 nM

Q: How did the IC50 turn out when Cc1ccc(CNC(=O)c2nc3n(c(=O)c2O)CCCC32CCC2)o1 [Example 82, 3′-Hydroxy-N-((5-methyl-2-furyl)methyl)-4′-oxo-7′,8′-dihydro-4′H,6′H-spiro[cyclobutane-1,9′-pyrido[1,2-a]pyrimidine]-2′-carboxamide] was run?
A: 2 to 100 nM

Q: Which IC50 does the source give for Cc1csc(CNC(=O)c2nc3n(c(=O)c2O)CCCC32CCC2)c1 [Example 83, 3′-Hydroxy-N-((4-methyl-2-thienyl)methyl)-4′-oxo-7′,8′-dihydro-4′H,6′H-spiro[cyclobutane-1,9′-pyrido[1,2-a]pyrimidine]-2′-carboxamide] here?
A: 2 to 100 nM

Q: Which IC50 does the source give for CC1(C)OCCn2c1nc(C(=O)NCc1cnn(-c3ccccc3)c1)c(O)c2=O [Example 6, Pyrimido[2,1-c][1,4]oxazine-2-carboxamide, 4,6,7,9-tetrahydro-3-hydroxy-9,9-dimethyl-4-oxo-N-[(1-phenyl-1H-pyrazol-4-yl)methyl]-] here?
A: ≥ 1000 nM

Q: How did the IC50 turn out when “Pyrimido[2,1-c][1,4]oxazine-2- carboxamide, 4,6,7,9-tetrahydro-3- hydroxy-9,9-dimethyl-N-[2-(5- methyl-1H-indol-3-yl)ethyl]-4-oxo- [Example 58]” was run?
A: 100 to 1000 nM

Q: How did the IC50 turn out when “Pyrimido[2,1-c][1,4]oxazine-2- carboxamide, N-[(4-bromo-1- ethyl-1H-pyrazol-5-yl)methyl]- 4,6,7,9-tetrahydro-3-hydroxy-9,9- dimethyl-4-oxo- [Example 73]” was run?
A: ≥ 1000 nM

Q: Cc1ccc(CNC(=O)c2nc3n(c(=O)c2O)CCCC32CCC2)s1 [Example 84, 3′Hhydroxy-N-((5-methyl-2-thienyl)methyl)-4′-oxo-7′,8′-dihydro-4′H,6′H-spiro[cyclobutane-1,9′-pyrido[1,2-a]pyrimidine]-2′-carboxamide] was tested. Which IC50 did it give?
A: 2 to 100 nM

Q: “Pyrimido[2,1-c][1,4]oxazine-2- carboxamide, N-[(4-chloro-3- methyl-5-isoxazolyl)methyl]- 4,6,7,9-tetrahydro-3-hydroxy-9,9- dimethyl-4-oxo- [Example 54]” was tested. Which IC50 did it give?
A: 100 to 1000 nM

Q: With Cn1c(CNC(=O)c2nc3n(c(=O)c2O)CCOC3(C)C)cc2ccccc21 [Example 11, Pyrimido[2,1-c][1,4]oxazine-2-carboxamide, 4,6,7,9-tetrahydro-3-hydroxy-9,9-dimethyl-N-[(1-methyl-1H-indol-2-yl)methyl]-4-oxo-] as the compound, how does the IC50 read?
A: 2 to 100 nM

Q: With Cc1nc(C)c(CNC(=O)c2nc3n(c(=O)c2O)CCOC3(C)C)s1 [Example 24, Pyrimido[2,1-c][1,4]oxazine-2-carboxamide, N-[(2,4-dimethyl-5-thiazolyl)methyl]-4,6,7,9-tetrahydro-3-hydroxy-9,9-dimethyl-4-oxo-] as the compound, how does the IC50 read?
A: 2 to 100 nM

Q: Cc1ccc(CNC(=O)c2nc3n(c(=O)c2O)CCOC3(C)C)o1 [Example 37, Pyrimido[2,1-c][1,4]oxazine-2-carboxamide, 4,6,7,9-tetrahydro-3-hydroxy-9,9-dimethyl-N-[(5-methyl-2-furanyl)methyl]-4-oxo-] was tested. Which IC50 did it give?
A: 2 to 100 nM

Q: With CC1(C)OCCn2c1nc(C(=O)NCc1cc3ccccc3s1)c(O)c2=O [Example 1, Pyrimido[2,1-c][1,4]oxazine-2-carboxamide, N-(benzo[b]thien-2-ylmethyl)-4,6,7,9-tetrahydro-3-hydroxy-9,9-dimethyl-4-oxo-] as the compound, how does the IC50 read?
A: 2 to 100 nM

Q: CNC(=O)n1nc(CNC(=O)c2nc3n(c(=O)c2O)CCOC3(C)C)c2ccccc21 [Example 80, 3-Hydroxy-9,9-dimethyl-N-((1-(methylcarbamoyl)-1H-indazol-3-yl)methyl)-4-oxo-4,6,7,9-tetrahydropyrimido[2,1-c][1,4]oxazine-2-carboxamide] was tested. Which IC50 did it give?
A: 2 to 100 nM

Q: With “Pyrimido[2,1-c][1,4]oxazine-2- carboxamide, 4,6,7,9-tetrahydro-3- hydroxy-9,9-dimethyl-4-oxo-N-[2- (2-thienyl)ethyl]- [Example 53]” as the compound, how does the IC50 read?
A: 100 to 1000 nM

Q: For “Pyrimido[2,1-c][1,4]oxazine-2- carboxamide, N-[(1-ethyl-3- methyl-1H-pyrazol-5-yl)methyl]- 4,6,7,9-tetrahydro-3-hydroxy-9,9- dimethyl-4-oxo- [Example 46]”, which IC50 is on record?
A: 100 to 1000 nM

Q: Cc1ccc(CNC(=O)c2nc3n(c(=O)c2O)CCOC3(C)C)n1C [Example 9, Pyrimido[2,1-c][1,4]oxazine-2-carboxamide, N-[(1,5-dimethyl-1H-pyrrol-2-yl)methyl]-4,6,7,9-tetrahydro-3-hydroxy-9,9-dimethyl-4-oxo-] was tested. Which IC50 did it give?
A: 2 to 100 nM

Q: CC1(C)OCCn2c1nc(C(=O)NCc1ccc(Cc3ccccc3)o1)c(O)c2=O [Example 27, Pyrimido[2,1-c][1,4]oxazine-2-carboxamide, 4,6,7,9-tetrahydro-3-hydroxy-9,9-dimethyl-4-oxo-N-[[5-(phenylmethyl)-2-furanyl]methyl]] was tested. Which IC50 did it give?
A: 2 to 100 nM

Q: Which IC50 does the source give for Cc1cc(Br)c(CNC(=O)c2nc3n(c(=O)c2O)CCOC3(C)C)s1 [Example 33, Pyrimido[2,1-c][1,4]oxazine-2-carboxamide, N-[(3-bromo-5-methyl-2-thienyl)methyl]-4,6,7,9-tetrahydro-3-hydroxy-9,9-dimethyl-4-oxo-] here?
A: 2 to 100 nM

Q: Which IC50 does the source give for “Pyrimido[2,1-c][1,4]oxazine-2- carboxamide, 4,6,7,9-tetrahydro-3- hydroxy-9,9-dimethyl-N-[(4- methyl-2-phenyl-5- thiazolyl)methyl]-4-oxo- [Example 74]” here?
A: ≥ 1000 nM

Q: For CC1(C)OCCn2c1nc(C(=O)NCCc1c[nH]c3ccc(F)cc13)c(O)c2=O [Example 14, Pyrimido[2,1-c][1,4]oxazine-2-carboxamide, N-[2-(5-fluoro-1H-indol-3-yl)ethyl]-4,6,7,9-tetrahydro-3-hydroxy-9,9-dimethyl-4-oxo-], which IC50 is on record?
A: 2 to 100 nM

Q: Which IC50 does the source give for Cc1cc(CNC(=O)c2nc3n(c(=O)c2O)CCOC3(C)C)n(C)n1 [Example 8, Pyrimido[2,1-c][1,4]oxazine-2-carboxamide, N-[(1,3-dimethyl-1H-pyrazol-5-yl)methyl]-4,6,7,9-tetrahydro-3-hydroxy-9,9-dimethyl-4-oxo-] here?
A: 100 to 1000 nM

Q: With Cc1csc(CNC(=O)c2nc3n(c(=O)c2O)CCOC3(C)C)c1 [Example 30, Pyrimido[2,1-c][1,4]oxazine-2-carboxamide, 4,6,7,9-tetrahydro-3-hydroxy-9,9-dimethyl-N-[(4-methyl-2-thienyl)methyl]-4-oxo-] as the compound, how does the IC50 read?
A: 2 to 100 nM

Q: Cn1cc(CNC(=O)c2nc3n(c(=O)c2O)CCOC3(C)C)nn1 [Example 25, Pyrimido[2,1-c][1,4]oxazine-2-carboxamide, 4,6,7,9-tetrahydro-3-hydroxy-9,9-dimethyl-N-[(1-methyl-1H-1,2,3-triazol-4-yl)methyl]-4-oxo-] was tested. Which IC50 did it give?
A: ≥ 1000 nM

Q: “Pyrimido[2,1-c][1,4]oxazine-2- carboxamide, 4,6,7,9-tetrahydro-3- hydroxy-9,9-dimethyl-N-[(1- methyl-1H-pyrrol-2-yl)methyl]-4- oxo [Example 47]” was tested. Which IC50 did it give?
A: 100 to 1000 nM

Q: For “Pyrimido[2,1-c][1,4]oxazine-2- carboxamide, N-[(1,3-dimethyl- 1H-pyrazol-4-yl)methyl]-4,6,7,9- tetrahydro-3-hydroxy-9,9- dimethyl-4-oxo- [Example 61]”, which IC50 is on record?
A: 100 to 1000 nM

Q: “Pyrimido[2,1-c][1,4]oxazine-2- carboxamide, N-[(1-ethyl-3- methyl-1H-pyrazol-4-yl)methyl]- 4,6,7,9-tetrahydro-3-hydroxy-9,9- dimethyl-4-oxo- [Example 63]” was tested. Which IC50 did it give?
A: 100 to 1000 nM

Test system: recombinant NL-Rluc virus
Test: Inhibition of HIV replication (NL-Rluc virus, luciferase)
Format: cell-based
Details: NL-Rluc pseudotype virus; serum condition of tabulated values not stated (10% FBS, 15 mg/ml HSA/10% FBS or 40% human serum/5% FBS); read-out: Activity (EC50 class, inhibition of HIV replication)

Q: With “Pyrimido[2,1-c][1,4]oxazine-2- carboxamide, N-[(2-bromo-3- thienyl)methy]-4,6,7,9-tetrahydro- 3-hydroxy-9,9-dimethyl-4-oxo- [Example 41]” as the compound, how does the EC50 read?
A: 100 to 1000 nM

Q: Which EC50 does the source give for “Pyrimido[2,1-c][1,4]oxazine-2- carboxamide, N-[(2,5-dimethyl-3- furanyl)methyl]-4,6,7,9- tetrahydro-3-hydroxy-9,9- dimethyl-4-oxo- [Example 44]” here?
A: 3 to 100 nM

Q: How did the EC50 turn out when “Pyrimido[2,1-c][1,4]oxazine-2- carboxamide, N-(2- benzofuranylmethyl)-4,6,7,9- tetrahydro-3-hydroxy-9,9- dimethyl-4-oxo- [Example 56]” was run?
A: 3 to 100 nM

Q: For “Pyrimido[2,1-c][1,4]oxazine-2- carboxamide, N-[(4-chloro-1- ethyl-1H-pyrazol-3-yl)methyl]- 4,6,7,9-tetrahydro-3-hydroxy-9,9- dimethyl-4-oxo- [Example 70]”, which EC50 is on record?
A: > 1000 nM

Q: For “Pyrimido[2,1-c][1,4]oxazine-2- carboxamide, N-[(1-ethyl-1H- pyrazol-3-yl)methyl]-4,6,7,9- tetrahydro-3-hydroxy-9,9- dimethyl-4-oxo- [Example 67]”, which EC50 is on record?
A: 100 to 1000 nM
